In patent publication US20210253560A1, “PLANT GROWTH REGULATING COMPOUNDS” (SYNGENTA PARTICIPATIONS AG, priority 2018, published 2021):

system: corn leaf; experiment: Dark induced senescence of corn leaf (leaf discs, image analysis); type: in vivo, corn (variety Multitop); details: 100 μM-0.0001 μM, 23° C., up to 8 days, 12 replicates, read-out: IC50 for dark induced senescence of corn leaf (concentration at which 50% senescence was achieved)
Description: It is known that strigolactones regulate (accelerate) leaf senescence, potentially through D14 receptor signaling. Compounds of the present invention (IA) were compared to structurally-related compounds (P) in a corn leaf dark induced senescence assay. Corn plants of variety Multitop were grown in a greenhouse with relative 75% humidity and at 23-25° C. for 6 weeks. 1.4 cm diameter leaf discs were placed into 24-well plates containing a test compounds in a concentration gradient (100 μM-0.0001 μM) at a final concentration of 0.5% DMSO. Each concentration was tested in 12 replicates. Plates were sealed with seal foil. The foil was pierced to provide gas exchange in each well. The plates were placed into the completely dark climatic chamber. Plates were incubated in the chamber with 75% humidity and at 23° C. for 8 days. On days 0, 5, 6, 7 and 8 photographs were taken of each plates, and image analysis conducted with a macro developed using the ImageJ software. The image analysis was used to determine the concentration at which 50% senescence was achieved (IC50), see Table 3. The lower the value, the higher senescence induction potency.

IC50	SMILES
2.47 µM	CC1=CC(OC=C2C(=O)N(CC#N)C3c4ccccc4CC23)OC1=O (stereo not drawn) [Compound P4]
0.074 µM	CC1=CC(OC=C2C(=O)N(CC#N)C3c4ccccc4CC23)OC1=O (stereo not drawn) [Compound P6-Z]
7.2 µM	CC1=CC(OC=C2C(=O)N(CC#N)C3c4ccccc4CC23)OC1=O (stereo not drawn) [Compound P3]
9.7 µM	CC1=CC(OC=C2C(=O)N(CC#N)C3c4ccccc4CC23)OC1=O (stereo not drawn) [Compound P2]
0.11 µM	CC1=CC(OC=C2C(=O)N(CC#N)C3c4ccccc4CC23)OC1=O (stereo not drawn) [Compound P1]

same assay, conditions: Zea mays, foliar, 192 h, 100 μM-0.0001 μM, 23° C., up to 8 days, 12 replicates, read-out: IC50 for dark induced senescence of corn leaf (concentration at which 50% senescence was achieved)

SMILES	IC50
CC1=C(C)C(O/C=C2/C(=O)N(CC#N)C3c4ccccc4CC23)OC1=O (stereo not drawn) [IA-10-E]	0.155 µM
CC1=C(C)C(O/C=C2\C(=O)N(CC#N)C3c4ccccc4CC23)OC1=O (stereo not drawn) [IA-10-Z, 2-[(3Z)-3-[(3,4-dimethyl-5-oxo-2H-furan-2-yl)oxymethylene]-2-oxo-4,8b-dihydro-3aH-indeno[1,2-b]pyrrol-1-yl]acetonitrile]	0.07 µM

Second part, the molecule after the results:

IC50	SMILES
0.03 µM	CC(=O)N1C(=O)/C(=C/OC2OC(=O)C(C)=C2C)C2Cc3ccccc3C21 (stereo not drawn) [IA-1, (3E)-1-acetyl-3-[(3,4-dimethyl-5-oxo-2H-furan-2-yl)oxymethylene]-4,8b-dihydro-3aH-indeno[1,2-b]pyrrol-2-one]
0.17 µM	CC1=C(C)C(O/C=C2/C(=O)N(c3ccccc3)C3c4ccccc4CC23)OC1=O (stereo not drawn) [IA-8, (3E)-3-[(3,4-dimethyl-5-oxo-2H-furan-2-yl)oxymethylene]-1-phenyl-4,8b-dihydro-3aH-indeno[1,2-b]pyrrol-2-one]
